The results in this text go back to PubChem BioAssay AID192 (DTP/NCI, 2004).

For the experiment, the system named is BDF1 mice, B16 melanoma ip, median survival T/C. As to the kind of experiment: NCI In Vivo Anticancer Drug Screen. Data for tumor model B16 Melanoma (intraperitoneal) in B6D2F1 (BDF1) mice. The settings on record: endpoint: median survival time, higher = longer survival. In outline:
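Transplantable tumor model; survival or tumor size measured; reported as T/C, treated over vehicle control.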

[1] abbreviates: dose: 1.25 mg/kg/injection, schedule: Q01DX009 (ip), vehicle: saline with Tween-80.
[2] abbreviates: dose: 2.5 mg/kg/injection, schedule: Q01DX009 (ip), vehicle: saline with Tween-80.
The mark [3] stands for this setting: dose: 5.0 mg/kg/injection, schedule: Q01DX009 (ip), vehicle: saline with Tween-80.
[4] abbreviates: dose: 10.0 mg/kg/injection, schedule: Q01DX009 (ip), vehicle: Klucel (hydroxypropylcellulose) (HPC).
Setting [5] is: dose: 20.0 mg/kg/injection, schedule: Q01DX009 (ip), vehicle: Klucel (hydroxypropylcellulose) (HPC).

Molecules are shown by their SMILES. Several values for one entry are separate records, joined by “and”; a condition that tells them apart may be missing. Identical values can stand only once. Inconclusive results and toxic doses are left out.

On to `OCC1OC(OC2(CO)OC(CO)C(O)C2O)C(O)C(O)C1O` (configuration not stated), for which the T/C (dose: 3.9 mg/kg/injection, schedule: Q01DX005 (ip), vehicle: saline) was 104 % of control; the T/C (dose: 7.81 mg/kg/injection, schedule: Q01DX005 (ip), vehicle: saline) was 87 % of control; the T/C (dose: 15.63 mg/kg/injection, schedule: Q01DX005 (ip), vehicle: saline) is 105 % of control; the T/C (dose: 31.25 mg/kg/injection, schedule: Q01DX005 (ip), vehicle: saline) was 104 % of control; the T/C (dose: 62.5 mg/kg/injection, schedule: Q01DX005 (ip), vehicle: saline) was 105 % of control; the T/C (dose: 125.0 mg/kg/injection, schedule: Q01DX005 (ip), vehicle: saline) was 105 % of control. The T/C was 109 % of control (dose: 250.0 mg/kg/injection, schedule: Q01DX005 (ip), vehicle: saline); 105 % of control (dose: 500.0 mg/kg/injection, schedule: Q01DX005 (ip), vehicle: saline); 104 % of control (dose: 1000.0 mg/kg/injection, schedule: Q01DX005 (ip), vehicle: saline); 102 % of control (dose: 2000.0 mg/kg/injection, schedule: Q01DX005 (ip), vehicle: saline).

Turning to `Nc1nc(=S)c2ncn(C3CC(O)C(CO)O3)c2[nH]1` (configuration not stated), the T/C reads like this: under setting [1], 104 % of control; (dose: 1.25 mg/kg/injection, schedule: Q01DX009 (ip), vehicle: saline) 102 % of control; under setting [2], 117 % of control; (dose: 2.5 mg/kg/injection, schedule: Q01DX009 (ip), vehicle: saline) 93 % of control; under setting [3], 113 % of control; (dose: 5.0 mg/kg/injection, schedule: Q01DX009 (ip), vehicle: saline) 104 % of control. The T/C reads like this: (dose: 10.0 mg/kg/injection, schedule: Q01DX009 (ip), vehicle: saline) 104 % of control; (dose: 12.5 mg/kg/injection, schedule: Q01DX009 (ip), vehicle: saline sonified) 112 % of control; (dose: 20.0 mg/kg/injection, schedule: Q01DX009 (ip), vehicle: saline) 100 % of control; (dose: 25.0 mg/kg/injection, schedule: Q01DX009 (ip), vehicle: saline sonified) 110 % of control; (dose: 50.0 mg/kg/injection, schedule: Q01DX009 (ip), vehicle: saline sonified) 87 % of control.

On to `C[n+]1ccc(Nc2ccc(NC(=O)c3ccc(Nc4cc[n+](C)c5ccc(N)cc45)cc3)cc2)cc1`, for which the T/C by setting is: (dose: 0.5 mg/kg/injection, schedule: Q01DX009 (ip), vehicle: Klucel (hydroxypropylcellulose) (HPC)) 105 % of control; (dose: 1.0 mg/kg/injection, schedule: Q01DX009 (ip), vehicle: Klucel (hydroxypropylcellulose) (HPC)) 98 % of control and 101 % of control; (dose: 1.0 mg/kg/injection, schedule: Q02DX009 (ip), vehicle: Klucel (hydroxypropylcellulose) (HPC)) 100 % of control and 116 % of control; (dose: 2.0 mg/kg/injection, schedule: Q01DX009 (ip), vehicle: Klucel (hydroxypropylcellulose) (HPC)) 105 % of control and 108 % of control and 111 % of control; (dose: 2.0 mg/kg/injection, schedule: Q02DX009 (ip), vehicle: Klucel (hydroxypropylcellulose) (HPC)) 106 % of control and 112 % of control; (dose: 4.0 mg/kg/injection, schedule: Q01DX009 (ip), vehicle: Klucel (hydroxypropylcellulose) (HPC)) 103 % of control and 111 % of control and 120 % of control. The T/C (dose: 4.0 mg/kg/injection, schedule: Q02DX009 (ip), vehicle: Klucel (hydroxypropylcellulose) (HPC)) is 109 % of control and 112 % of control; the T/C (dose: 8.0 mg/kg/injection, schedule: Q01DX009 (ip), vehicle: Klucel (hydroxypropylcellulose) (HPC)) was 109 % of control and 123 % of control and 124 % of control; the T/C (dose: 8.0 mg/kg/injection, schedule: Q02DX009 (ip), vehicle: Klucel (hydroxypropylcellulose) (HPC)) is 107 % of control and 118 % of control; the T/C (dose: 16.0 mg/kg/injection, schedule: Q02DX009 (ip), vehicle: Klucel (hydroxypropylcellulose) (HPC)) is 98 % of control and 110 % of control.

As for `CCN(CC)CCOc1ccc(Br)cc1`, the T/C (dose: 12.5 mg/kg/injection, schedule: Q01DX009 (ip), vehicle: Klucel (hydroxypropylcellulose) (HPC)) was 96 % of control; the T/C (dose: 50.0 mg/kg/injection, schedule: Q01DX009 (ip), vehicle: Klucel (hydroxypropylcellulose) (HPC)) was 87 % of control and 98 % of control.

Regarding `OC1(C#CC2(O)c3ccccc3-c3ccccc32)c2ccccc2-c2ccccc21`, the T/C is, setting by setting: (dose: 100.0 mg/kg/injection, schedule: Q01DX009 (ip), vehicle: Klucel (hydroxypropylcellulose) (HPC)) 122 % of control; (dose: 200.0 mg/kg/injection, schedule: Q01DX009 (ip), vehicle: Klucel (hydroxypropylcellulose) (HPC)) 97 % of control; (dose: 400.0 mg/kg/injection, schedule: Q01DX009 (ip), vehicle: Klucel (hydroxypropylcellulose) (HPC)) 94 % of control.

For the molecule `COC(=O)[C@@H]1c2cc3c(c(O)c2[C@@H](OC)C[C@@]1(C)O)C(=O)c1c(O)cc2c(c1C3=O)OC1O[C@@]2(C)[C@H](O)[C@@H](N(C)C)[C@@H]1O`, the T/C (dose: 12.5 mg/kg/injection, schedule: Q01DX009 (ip), vehicle: saline) was 155 % of control and 158 % of control; the T/C (dose: 25.0 mg/kg/injection, schedule: Q01DX009 (ip), vehicle: saline) was 165 % of control and 178 % of control; the T/C (dose: 50.0 mg/kg/injection, schedule: Q01DX009 (ip), vehicle: saline) was 184 % of control and 186 % of control; the T/C (dose: 200.0 mg/kg/injection, schedule: Q01DX009 (ip), vehicle: saline) was 153 % of control.

For the molecule `C=CCCCC[P+](c1ccccc1)(c1ccccc1)c1ccccc1`, the T/C was 102 % of control (dose: 1.5 mg/kg/injection, schedule: Q01DX009 (ip), vehicle: saline) and 92 % of control (dose: 3.0 mg/kg/injection, schedule: Q01DX009 (ip), vehicle: saline).

As to `O=Nc1c(N=O)c(N=O)c(N=O)c(N=O)c1N=O`, the T/C reads like this: under setting [1], 108 % of control; under setting [2], 105 % of control; under setting [3], 88 % of control and 100 % of control; (dose: 10.0 mg/kg/injection, schedule: Q01DX009 (ip), vehicle: saline with Tween-80) 104 % of control; (dose: 20.0 mg/kg/injection, schedule: Q01DX009 (ip), vehicle: saline with Tween-80) 87 % of control.

Consider `OC1CC2CC1C=C2c1ccccc1` (configuration not stated), for which the T/C was 102 % of control (dose: 100.0 mg/kg/injection, schedule: Q04DX003 (ip), vehicle: saline with Tween-80); 105 % of control (dose: 200.0 mg/kg/injection, schedule: Q04DX003 (ip), vehicle: saline with Tween-80); 94 % of control (dose: 400.0 mg/kg/injection, schedule: Q04DX003 (ip), vehicle: saline with Tween-80).

Turning to `CC#CC#C/C=C1\OC2(CCCCO2)C(O)C1OC(=O)CC(C)C` (configuration not stated), the T/C is, setting by setting: under setting [4], 103 % of control; under setting [5], 103 % of control; (dose: 40.0 mg/kg/injection, schedule: Q01DX009 (ip), vehicle: Klucel (hydroxypropylcellulose) (HPC)) 94 % of control.

In the case of `Nc1ncnc2c1ccn2C1OC2COP(=O)(O)OC2C1O` (configuration not stated), the T/C was 116 % of control (dose: 1.0 mg/kg/injection, schedule: Q01DX009 (ip), vehicle: saline) and 111 % of control (dose: 4.0 mg/kg/injection, schedule: Q01DX009 (ip), vehicle: saline).

For `Cc1ccc(Cl)cc1NC(=O)Nc1ccc(C)c(NC(=O)Nc2cc(Cl)ccc2C)c1`, the T/C was 90 % of control (dose: 100.0 mg/kg/injection, schedule: Q01DX009 (ip), vehicle: saline with Tween-80); 95 % of control (dose: 200.0 mg/kg/injection, schedule: Q01DX009 (ip), vehicle: saline with Tween-80); 90 % of control (dose: 400.0 mg/kg/injection, schedule: Q01DX009 (ip), vehicle: saline with Tween-80).

With `CN(C)N=Nc1cccc(C(N)=O)c1`, the T/C runs as follows: (dose: 5.0 mg/kg/injection, schedule: Q01DX009 (ip), vehicle: Klucel (hydroxypropylcellulose) (HPC)) 103 % of control and 121 % of control; under setting [4], 106 % of control and 113 % of control; under setting [5], 111 % of control and 123 % of control; (dose: 80.0 mg/kg/injection, schedule: Q01DX009 (ip), vehicle: Klucel (hydroxypropylcellulose) (HPC)) 101 % of control and 118 % of control; (dose: 100.0 mg/kg/injection, schedule: Q01DX009 (ip), vehicle: saline) 46 % of control; (dose: 160.0 mg/kg/injection, schedule: Q01DX009 (ip), vehicle: Klucel (hydroxypropylcellulose) (HPC)) 113 % of control.

`COc1ccc2c(c1)CN(S(=O)(=O)c1ccc(C)cc1)CCC2O` (configuration not stated): the T/C runs as follows: (dose: 100.0 mg/kg/injection, schedule: Q04DX003 (ip), vehicle: Klucel (hydroxypropylcellulose) (HPC)) 96 % of control; (dose: 200.0 mg/kg/injection, schedule: Q04DX003 (ip), vehicle: Klucel (hydroxypropylcellulose) (HPC)) 93 % of control; (dose: 400.0 mg/kg/injection, schedule: Q04DX003 (ip), vehicle: Klucel (hydroxypropylcellulose) (HPC)) 95 % of control.
